{
  "source": "patent US6645959B1",
  "about": "“Method for treating postoperative ileus” (Warner-Lambert Company, priority 2000, dated 2003)",
  "key": {"[1]": {"tested_on": "AVP-induced pressor response (V1A antagonism)", "experiment": "Antagonism of AVP-induced pressor response in rats (oral)", "assay_type": "in vivo", "conditions": "given orally to rats"}, "[2]": {"tested_on": "AVP-induced pressor response (V1A antagonism)", "experiment": "Antagonism of AVP-induced pressor response in dogs (IV)", "assay_type": "in vivo"}, "[3]": {"tested_on": "urinary output (V2 antagonism)", "experiment": "Urinary output and osmolality in conscious dogs (V2 antagonism)", "assay_type": "in vivo"}, "[4]": {"tested_on": "dogs with heart failure induced by rapid right ventricular pacing", "experiment": "Heart failure induced by rapid right ventricular pacing in dogs", "assay_type": "in vivo", "conditions": "IV 0.1 mg/kg"}, "[5]": {"experiment": "Oral pharmacokinetics in the rat", "assay_type": "in vivo", "from_the_text": "(§1) There is a marked food effect with absorption reduced by >50% in dogs after a meal."}, "[6]": {"experiment": "Oral pharmacokinetics in the dog", "assay_type": "in vivo", "from_the_text": "as §1"}, "[7]": {"tested_on": "bone marrow in dogs", "experiment": "2- and 13-week oral toxicity studies in dogs", "assay_type": "in vivo"}, "[8]": {"tested_on": "rats", "experiment": "Reproductive performance and fertility studies in rats", "assay_type": "in vivo"}, "[9]": {"tested_on": "rats", "experiment": "Teratogenicity in rats", "assay_type": "in vivo"}, "[10]": {"tested_on": "rabbits", "experiment": "Teratogenicity in rabbits", "assay_type": "in vivo"}, "[11]": {"tested_on": "bacteria", "experiment": "Mutagenicity in bacteria", "assay_type": "cell-based"}, "[12]": {"tested_on": "human lymphocytes", "experiment": "Clastogenicity in human lymphocytes in vitro", "assay_type": "cell-based"}, "[13]": {"tested_on": "bone marrow of rats", "experiment": "Clastogenicity in bone marrow of rats", "assay_type": "in vivo"}, "[14]": {"tested_on": "rats", "conditions": "rat, in vivo, 2.5 mg/kg"}, "[15]": {"tested_on": "dogs", "conditions": "dog, in vivo, 2 mg/kg"}, "[16]": {"tested_on": "AVP-induced platelet aggregation (V1A antagonist activity)", "experiment": "AVP-induced platelet aggregation in Phase 1 subjects", "assay_type": "in vivo, human", "conditions": "subjects at 20 mg/day orally or 2.5 mg IV"}, "[17]": {"tested_on": "AVP-induced dermal vasoconstriction", "experiment": "AVP-induced dermal vasoconstriction in Phase 1 subjects", "assay_type": "in vivo, human", "conditions": "subjects at 50 mg IV"}, "[18]": {"tested_on": "aquaretic action (V2 receptor antagonism)", "experiment": "Aquaretic action in normal subjects (V2 receptor antagonism)", "assay_type": "in vivo, human"}, "[19]": {"tested_on": "healthy subjects", "experiment": "Safety in Phase 1 subjects", "assay_type": "in vivo, human", "from_the_text": "These observations were considered related to antagonism of V2 receptors and not a safety concern. Vital signs (blood pressure and heart rate) were unaffected by YM087."}, "[20]": {"tested_on": "female rats", "conditions": "13-week oral study, all doses"}, "[21]": {"experiment": "Pharmacokinetics in healthy subjects (Phase 1)"}, "[22]": {"conditions": "oral 20 mg, single dose combination"}},
  "note": "Where a name gives a salt, the structure may show the parent alone.",
  "data": [
    {"smiles": "Cc1nc2c([nH]1)-c1ccccc1N(C(=O)c1ccc(NC(=O)c3ccccc3-c3ccccc3)cc1)CC2", "note": "[YM087, N-[4-(2-methyl-4,5,6-tetrahydromidazo [4,5-d][1]benzazepin-6-ylcarbonyl)phenyl]biphenyl-2-carboxamide hydrochloride]", "values": [
      {"measurement": "ID50 (dose that reduced the AVP response by 50%)", "setting": "[1]", "value": 0.32, "unit": "mg/kg"},
      {"measurement": "ID50 (dose that reduced the AVP response by 50%)", "setting": "[2]", "value": 0.026, "unit": "mg/kg"},
      {"measurement": "urinary output", "setting": "[3]; conscious dogs, oral 0.03 to 0.3 mg/kg, dose-related", "value": "increased urinary output"},
      {"measurement": "urinary osmolality", "setting": "[3]; conscious dogs, oral 0.03 to 0.3 mg/kg, reduced from 1500", "value": "< 100", "unit": "mOsm/kg H2O"},
      {"measurement": "effect on urinary sodium (Na) or potassium (K) excretion", "setting": "[3]; unlike furosemide", "value": "little or no effect"},
      {"measurement": "cardiac function", "setting": "[4]", "value": "significantly improved the depressed cardiac function"},
      {"measurement": "water diuresis", "setting": "[4]", "value": "produced a water diuresis"},
      {"measurement": "half-life", "setting": "[5]; in vivo, rats, read-out: elimination half-life (converted)", "value": 1, "unit": "h"},
      {"measurement": "time to peak concentrations", "setting": "[5]; oral", "value": 0.5, "unit": "h"},
      {"measurement": "half-life", "setting": "[6]; in vivo, dogs, read-out: elimination half-life (converted)", "value": 2, "unit": "h"},
      {"measurement": "time to peak concentrations", "setting": "[6]; oral", "value": 1, "unit": "h"},
      {"measurement": "peripheral blood counts", "setting": "[7]; affected dogs, 13-week oral study", "value": "Decreased peripheral erythrocyte, leukocyte, and/or platelet counts"},
      {"measurement": "reversibility of bone marrow and peripheral blood changes", "setting": "[7]; dogs", "value": "reversible"},
      {"measurement": "female fertility findings", "setting": "[8]; females given 100 mg/kg orally for 2 weeks prior to mating with untreated males", "value": "reduced fertility index, increased implantation loss, and decreased live fetuses"},
      {"measurement": "reproductive performance of male rats", "setting": "[8]; male rats", "value": "did not affect"},
      {"measurement": "teratogenicity", "setting": "[9]", "value": "not teratogenic"},
      {"measurement": "teratogenicity", "setting": "[10]", "value": "not teratogenic"},
      {"measurement": "mutagenicity", "setting": "[11]", "value": "not mutagenic"},
      {"measurement": "clastogenicity", "setting": "[12]", "value": "not clastogenic"},
      {"measurement": "clastogenicity", "setting": "[13]", "value": "not clastogenic"},
      {"measurement": "toxicity in 4-week IV study", "setting": "[14]", "value": "No toxicity was observed"},
      {"measurement": "toxicity in 4-week IV study", "setting": "[15]", "value": "No toxicity was observed"},
      {"measurement": "AVP-induced platelet aggregation", "setting": "[16]", "value": "Inhibition of AVP-induced platelet aggregation"},
      {"measurement": "AVP-induced dermal vasoconstriction", "setting": "[17]", "value": "Total inhibition"},
      {"measurement": "tolerability of aquaretic effects", "setting": "[18]; 120 mg QD or 60 mg BID orally or 50 mg IV, normal subjects", "value": "too uncomfortable in normal subjects to be tolerable"},
      {"measurement": "duration of increased urine production rate postdosing", "setting": "[18]; IV 50 mg/day", "value": "≤ 6", "unit": "h"},
      {"measurement": "duration of increased urine production rate postdosing", "setting": "[18]; IV doses up to 250 μg/kg", "value": "up to 3 hours"},
      {"measurement": "dose at which aquaretic action with decrease in urine osmolarity starts", "setting": "[18]; IV, normal subjects", "value": 0.05, "unit": "mg/kg"},
      {"measurement": "dose at which aquaretic action with decrease in urine osmolarity starts", "setting": "[18]; oral, normal subjects", "value": 15, "unit": "mg"},
      {"measurement": "overall safety", "setting": "[19]; approximately 250 subjects treated", "value": "no major safety concerns were identified"},
      {"measurement": "urinary and plasma osmolarity at higher doses", "setting": "[19]; higher doses, related to V2 antagonism", "value": "urinary osmolarity decreased and plasma osmolarity increased"},
      {"measurement": "biochemical or hematological laboratory parameters", "setting": "[19]; human, in vivo", "value": "No drug-related trend was observed"},
      {"measurement": "other adverse events", "setting": "[19]; human, in vivo", "value": "flushes, a sensation of cold extremities, abdominal complaints, abnormal stools, syncope, dizziness, palpitations, and postural hypotension"},
      {"measurement": "vital signs (blood pressure and heart rate)", "setting": "[19]; human, in vivo", "value": "unaffected"},
      {"measurement": "serious event in patient with severe congestive heart failure", "setting": "[19]; one patient, 80 mg/day for 4 days", "value": "generalized tonic clonic seizure"},
      {"measurement": "number of subjects with minor reversible decreases in white blood cell count", "setting": "[19]; one subject on placebo also affected", "value": "Three"},
      {"measurement": "most frequent adverse events", "setting": "[19]; regardless of treatment association", "value": "mild or moderate thirst and mild headache"},
      {"measurement": "uterine weights", "setting": "[20]", "value": "decreased at all doses"},
      {"measurement": "half-life", "setting": "[21]; human, plasma", "value": "4 to 5", "unit": "h"},
      {"measurement": "bioavailability", "setting": "[21]; human, plasma, oral", "value": "43 to 59", "unit": "%"},
      {"measurement": "Tmax", "setting": "[21]; human, plasma, po", "value": "~1", "unit": "h"},
      {"measurement": "bioavailability", "setting": "[21]; human, plasma, po, 60 mg", "value": 44, "unit": "%"},
      {"measurement": "effect of 0.5 mg IV digoxin on pharmacokinetics", "setting": "[21]; [22]", "value": "not affected"},
      {"measurement": "effect of 25 mg oral captopril on pharmacokinetics", "setting": "[21]; [22]", "value": "not affected"},
      {"measurement": "plasma levels after the second dose", "setting": "[21]; repeated BID oral doses, 60 mg", "value": "unexpectedly high plasma levels"}
    ]}
  ]
}
